Molecular target: T1, human TLR8 (Homo sapiens, UniProt Q9NR97)
T1 sequence (Q9NR97 27-1041): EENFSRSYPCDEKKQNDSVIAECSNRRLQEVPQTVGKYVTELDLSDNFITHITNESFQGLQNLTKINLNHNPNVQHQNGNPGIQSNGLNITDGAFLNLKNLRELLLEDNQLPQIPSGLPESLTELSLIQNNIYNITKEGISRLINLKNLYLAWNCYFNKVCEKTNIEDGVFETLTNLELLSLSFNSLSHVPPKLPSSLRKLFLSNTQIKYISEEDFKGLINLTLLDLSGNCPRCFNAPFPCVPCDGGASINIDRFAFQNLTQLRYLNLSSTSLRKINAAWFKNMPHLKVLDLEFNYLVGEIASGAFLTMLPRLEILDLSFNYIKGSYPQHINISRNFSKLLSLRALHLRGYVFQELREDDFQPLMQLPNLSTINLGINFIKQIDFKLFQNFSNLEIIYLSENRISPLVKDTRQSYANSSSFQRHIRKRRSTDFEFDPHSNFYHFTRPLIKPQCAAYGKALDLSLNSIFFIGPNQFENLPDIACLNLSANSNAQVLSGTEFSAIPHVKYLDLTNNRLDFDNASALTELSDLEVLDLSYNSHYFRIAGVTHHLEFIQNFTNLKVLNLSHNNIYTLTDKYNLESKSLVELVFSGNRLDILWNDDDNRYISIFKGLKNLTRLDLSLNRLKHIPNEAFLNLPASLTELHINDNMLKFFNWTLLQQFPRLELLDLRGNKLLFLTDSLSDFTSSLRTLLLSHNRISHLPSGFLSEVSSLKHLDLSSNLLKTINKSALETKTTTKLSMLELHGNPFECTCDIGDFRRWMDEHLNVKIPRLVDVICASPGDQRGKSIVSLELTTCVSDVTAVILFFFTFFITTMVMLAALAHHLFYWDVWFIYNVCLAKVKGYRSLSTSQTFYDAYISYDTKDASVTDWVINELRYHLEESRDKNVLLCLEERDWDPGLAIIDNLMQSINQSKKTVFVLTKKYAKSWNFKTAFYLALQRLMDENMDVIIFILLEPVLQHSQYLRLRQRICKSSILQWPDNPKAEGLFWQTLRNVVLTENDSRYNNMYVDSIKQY
Experiment: HEK293-Blue-hTLR-8 cells assay (SEAP reporter, R848 stimulation)
Type: cell-based
Details: HEK293-Blue-hTLR-8 cells, R848 ligand, 20 hrs incubation; read-out: TLR8 IC50
Experimental: The following tests were carried out in order to determine the activity of the compounds of formula (I) in HEK293-Blue-hTLR-7/8/9 cells assay.
HEK293-Blue-hTLR-8 Cells Assay:
A stable HEK293-Blue-hTLR-8 cell line was purchased from InvivoGen (Cat. #: hkb-htlr8, San Diego, California, USA). These cells were originally designed for studying the stimulation of human TLR8 by monitoring the activation of NF-κB. A SEAP (secreted embryonic alkaline phosphatase) reporter gene was placed under the control of the IFN-β minimal promoter fused to five NF-κB and AP-1-binding sites. The SEAP was induced by activating NF-κB and AP-1 via stimulating HEK-Blue hTLR8 cells with TLR8 ligands. Therefore the reporter expression was declined by TLR8 antagonist under the stimulation of a ligand, such as R848, for incubation of 20 hrs. The cell culture supernatant SEAP reporter activity was determined using QUANTI-Blue™ kit (Cat. #: rep-qb1, Invivogen, San Diego, Ca, USA) at a wavelength of 640 nm, a detection medium that turns purple or blue in the presence of alkaline phosphatase.
HEK293-Blue-hTLR8 cells were incubated at a density of 250,000˜450,000 cells/mL in a volume of 170 μL in a 96-well plate in Dulbecco's Modified Eagle's medium (DMEM) containing 4.5 g/L glucose, 50 U/mL penicillin, […], […], 2 mM L-glutamine, 10% (v/v) heat-inactivated fetal bovine serum with addition of 20 μL test compound in a serial dilution in the presence of final DMSO at 1% and 10 μL of 60 uM R848 in above DMEM, perform incubation under 37° C. in a CO2 incubator for 20 hrs. Then 20 μL of the supernatant from each well was incubated with 180 μL Quanti-blue substrate solution at 37° C. for 2 hrs and the absorbance was read at 620˜655 nm using a spectrophotometer. The signalling pathway that TLR8 activation leads to downstream NF-κB activation has been widely accepted, and therefore similar reporter assay was modified for evaluating TLR8 antagonist.

Row | IC50 [nM] | Compound
1 | 98 | C[C@@H]1CN(c2ccc(C#N)n3nccc23)C[C@H](C(=O)NC2CC3CCC2CN3C)O1 (stereo partly drawn) [Example 34, (2R,6R)-4-(7-cyanopyrazolo[1,5-a]pyridin-4-yl)-6-methyl-N-(2-methyl-2-azabicyclo[2.2.2]octan-5-yl)morpholine-2-carboxamide]
2 | 370 | C[C@@H]1CN(c2ccc(C#N)n3nccc23)C[C@H](C(=O)NC2C3CNCC2COC3)O1 (stereo partly drawn) [Example 27, (2R,6R)-4-(7-cyanopyrazolo[1,5-a]pyridin-4-yl)-6-methyl-N-(3-oxa-7-azabicyclo[3.3.1]nonan-9-yl)morpholine-2-carboxamide]
3 | 27 | C[C@@H]1CN(c2ccc(C#N)n3nccc23)C[C@H](C(=O)NC2(C)CCNCC2)O1 [Example 19, (2R,6R)-4-(7-cyanopyrazolo[1,5-a]pyridin-4-yl)-6-methyl-N-(4-methyl-4-piperidyl)morpholine-2-carboxamide]
4 | 30 | C[C@@H]1CN(c2ccc(C#N)n3nccc23)C[C@H](C(=O)NC2CC3CCCC(C2)N3)O1 (stereo partly drawn) [Example 14, (2R,6R)-N-(9-azabicyclo[3.3.1]nonan-3-yl)-4-(7-cyanopyrazolo[1,5-a]pyridin-4-yl)-6-methyl-morpholine-2-carboxamide]
5 | 830 | C[C@@H]1CN(c2ccc(C#N)n3nccc23)C[C@H](C(=O)NC2CC3CC2CN3)O1 (stereo partly drawn) [Example 36, (2R,6R)-N-(2-azabicyclo[2.2.1]heptan-5-yl)-4-(7-cyanopyrazolo[1,5-a]pyridin-4-yl)-6-methyl-morpholine-2-carboxamide]
6 | 570 | C[C@@H]1CN(c2ccc(C#N)n3nccc23)C[C@H](C(=O)N[C@H]2CC[C@H](O)CC2)O1 [Example 21, Trans-(2R,6R)-4-(7-cyanopyrazolo[1,5-a]pyridin-4-yl)-N-(4-hydroxycyclohexyl)-6-methyl-morpholine-2-carboxamide]
7 | 7 | C[C@@H]1CN(c2ccc(C#N)n3nccc23)C[C@H](C(=O)NC2CCN(C)CC2)O1 [Example 1, (2R,6R)-4-(7-cyanopyrazolo[1,5-a]pyridin-4-yl)-6-methyl-N-(1-methyl-4-piperidyl)morpholine-2-carboxamide]
8 | 570 | CCC(O)CNC(=O)[C@H]1CN(c2ccc(C#N)n3nccc23)C[C@@H](C)O1 (stereo partly drawn) [Example 13, (2R,6R)-4-(7-cyanopyrazolo[1,5-a]pyridin-4-yl)-N-(2-hydroxybutyl)-6-methyl-morpholine-2-carboxamide]
9 | 190 | C[C@@H]1CN(c2ccc(C#N)n3nccc23)C[C@H](C(=O)N[C@H]2CC[C@@H](O)CC2)O1 [Example 20, Cis-(2R,6R)-4-(7-cyanopyrazolo[1,5-a]pyridin-4-yl)-N-(4-hydroxycyclohexyl)-6-methyl-morpholine-2-carboxamide]
10 | 18 | C[C@@H]1CN(c2ccc(C#N)n3nccc23)C[C@H](C(=O)NC2C3CCCC2CNC3)O1 (stereo partly drawn) [Example 37, (2R,6R)-N-(3-azabicyclo[3.3.1]nonan-9-yl)-4-(7-cyanopyrazolo[1,5-a]pyridin-4-yl)-6-methyl-morpholine-2-carboxamide]

Second part, the molecule before the results:

Row | Compound | IC50 [nM]
11 | C[C@H]1C[C@@H](NC(=O)[C@H](C)N)CN(c2ccc(C#N)n3nccc23)C1 [Example 44, (2S)-2-amino-N-[(3R,5S)-1-(7-cyanopyrazolo[1,5-a]pyridin-4-yl)-5-methyl-3-piperidyl]propanamide] | 140
12 | C[C@@H]1CN(c2ccc(C#N)n3nccc23)C[C@H](C(=O)NC23CC4CC(CC(C4)C2)C3)O1 [Example 12, (2R,6R)-N-(1-adamantyl)-4-(7-cyanopyrazolo[1,5-a]pyridin-4-yl)-6-methyl-morpholine-2-carboxamide] | 320
13 | C[C@H]1C[C@@H](N)CN(c2ccc(C#N)n3nccc23)C1 [Example 43, 4-[(3R,5S)-3-amino-5-methyl-1-piperidyl]pyrazolo[1,5-a]pyridine-7-carbonitrile] | 12
14 | C[C@@H]1CN(c2ccc(Cl)n3nccc23)C[C@H](C(=O)NC2CCN(C)CC2)O1 [Example 38, (2R,6R)-4-(7-chloropyrazolo[1,5-a]pyridin-4-yl)-6-methyl-N-(1-methyl-4-piperidyl)morpholine-2-carboxamide] | 7
15 | C[C@@H]1CN(c2ccc(C#N)n3nccc23)C[C@H](C(=O)NC(C)(C)CN)O1 [Example 41, (2R,6R)-N-(2-amino-1,1-dimethyl-ethyl)-4-(7-cyanopyrazolo[1,5-a]pyridin-4-yl)-6-methyl-morpholine-2-carboxamide] | 140
16 | CCC(C)(C)NC(=O)[C@H]1CN(c2ccc(C#N)n3nccc23)C[C@@H](C)O1 [Example 17, (2R,6R)-4-(7-cyanopyrazolo[1,5-a]pyridin-4-yl)-N-(1,1-dimethylpropyl)-6-methyl-morpholine-2-carboxamide] | 100
17 | C[C@@H]1CN(c2ccc(C#N)n3nccc23)C[C@H](C(=O)NC(C)(C)CO)O1 [Example 16, (2R,6R)-4-(7-cyanopyrazolo[1,5-a]pyridin-4-yl)-N-(2-hydroxy-1,1-dimethyl-ethyl)-6-methyl-morpholine-2-carboxamide] | 210
18 | C[C@@H]1CN(c2ccc(C#N)n3ncc(F)c23)C[C@H](C(=O)NC2CCN(C)CC2)O1 [Example 47, (2R,6R)-4-(7-cyano-3-fluoro-pyrazolo[1,5-a]pyridin-4-yl)-6-methyl-N-(1-methyl-4-piperidyl)morpholine-2-carboxamide] | 5
